In ChEMBL document CHEMBL1201862, “PubChem BioAssay data set” (2004):
The source made the active and inactive calls.

What was measured:
Beta-galactosidase = Beta-galactosidase (Escherichia coli, UniProt Q8VNN2); experiment: Dose response counterscreen for EBI2 assay utilizing the enzyme, b-galactosidase.; assay type: functional
[1] = biological target: Peroxisome proliferator-activated receptor gamma/Nuclear receptor corepressor 2 (Homo sapiens, UniProt P37231+Q9Y618); experiment: Counterscreen for NR2E3 inverse agonists: TR-FRET-based biochemical high throughput dose response assay to identify inverse agonists of the interaction between peroxisome proliferator-activated receptor gamma (PPARg) and nuclear receptor co-repressor 2 (NCOR2).; assay type: functional
[2] = biological target: Photoreceptor-specific nuclear receptor (Homo sapiens, UniProt Q9Y5X4); experiment: NR2E3 inverse agonists, dose response, biochemical, TR-FRET (AID 463256); assay type: functional
Prothrombin = Prothrombin (Homo sapiens, UniProt P00734); experiment: Thrombin 1536 HTS Dose Response Confirmation. [Related pubchem assays: 1046 (Thrombin 1536 HTS; hits were confirmed in this assay)]; assay type: functional
INS1 = experiment: beta cell apoptosis inhibitors, cytokine rescue, dose response, luminescence, retest (AID 449756); assay type: functional, cell-based; details: Rattus norvegicus;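 note: cell death triggered by IL-1 beta plus TNF-alpha plus IFN-gamma mixture; protective hits raise ATP signal compared with cytokine alone wells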
Vero = Vero cell cytotoxicity, cytotoxicity control for flavivirus capping enzyme inhibitors (AID 588742); assay type: functional; details: Chlorocebus sabaeus
Large T antigen = Large T antigen (Simian virus 40, UniProt P03070); assay type: functional, Betapolyomavirus macacae;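 note: Confirmatory-stage PubChem screen for compounds that inhibit SV40 T antigen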
[3] = biological target: T1, Voltage-gated N-type calcium channel alpha-1B subunit/Amyloid beta A4 precursor protein-binding family A member 1 (Homo sapiens, UniProt Q00975+Q02410); assay type: protein assay
[4] = biological target: T1, Voltage-gated N-type calcium channel alpha-1B subunit/Amyloid beta A4 precursor protein-binding family A member 1; assay type: protein assay; remark: listed apart in the source
[5] = biological target: T2, Corticotropin-releasing factor receptor 2/Corticotropin-releasing factor-binding protein (Homo sapiens, UniProt P24387+Q13324); experiment: activators of CRF receptor 2 with binding protein – uHTS hits, confirmation (AID 602473); assay type: functional; details: read-out: EC50_Mean
T2 sequence (Q13324 whole entry): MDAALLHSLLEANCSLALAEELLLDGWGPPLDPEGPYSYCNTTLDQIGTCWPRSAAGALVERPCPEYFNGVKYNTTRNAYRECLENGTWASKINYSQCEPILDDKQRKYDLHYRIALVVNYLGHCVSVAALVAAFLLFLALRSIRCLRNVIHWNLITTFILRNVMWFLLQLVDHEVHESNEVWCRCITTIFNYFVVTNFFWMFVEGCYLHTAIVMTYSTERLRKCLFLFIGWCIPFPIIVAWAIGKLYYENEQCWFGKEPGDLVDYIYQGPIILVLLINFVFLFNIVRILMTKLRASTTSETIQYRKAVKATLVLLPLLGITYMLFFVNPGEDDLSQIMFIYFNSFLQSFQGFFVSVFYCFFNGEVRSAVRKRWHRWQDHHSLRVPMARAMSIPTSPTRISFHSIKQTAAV
T2 sequence (P24387 whole entry): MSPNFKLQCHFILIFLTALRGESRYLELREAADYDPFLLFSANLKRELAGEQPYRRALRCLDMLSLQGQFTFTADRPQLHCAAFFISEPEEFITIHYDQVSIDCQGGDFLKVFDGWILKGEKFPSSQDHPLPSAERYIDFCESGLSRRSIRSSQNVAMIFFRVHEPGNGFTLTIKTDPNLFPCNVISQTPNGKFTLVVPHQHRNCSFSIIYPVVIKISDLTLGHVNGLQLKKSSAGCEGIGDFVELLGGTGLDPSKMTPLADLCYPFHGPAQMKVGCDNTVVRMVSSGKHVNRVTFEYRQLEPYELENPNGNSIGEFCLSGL

[6] = biological target: T2, Corticotropin-releasing factor receptor 2/Corticotropin-releasing factor-binding protein; experiment: Dose Response confirmation of uHTS hits for small molecule antagonists of the CRF-binding protein and CRF-R2 receptor complex.; assay type: functional; details: read-out: IC50_Mean
[7] = biological target: T3, Calpain-2 catalytic subunit (Sus scrofa, UniProt P43367); experiment: pig calpain II inhibitor potency, dose response, biochemical, fluorogenic peptide substrate (AID 1420); assay type: functional
T3 sequence (P43367 whole entry): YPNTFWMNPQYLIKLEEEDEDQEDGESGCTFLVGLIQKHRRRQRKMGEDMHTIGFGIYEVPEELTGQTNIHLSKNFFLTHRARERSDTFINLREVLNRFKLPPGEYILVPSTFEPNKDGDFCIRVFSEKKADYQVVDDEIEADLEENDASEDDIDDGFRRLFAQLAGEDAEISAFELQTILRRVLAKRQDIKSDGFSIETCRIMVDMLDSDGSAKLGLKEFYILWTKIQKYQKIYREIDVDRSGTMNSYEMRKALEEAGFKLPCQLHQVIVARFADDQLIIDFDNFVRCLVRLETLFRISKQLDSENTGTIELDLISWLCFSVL

[8] = biological target: T4, Polyadenylate-binding protein 1 (Homo sapiens, UniProt P11940); experiment: PABP1 MLLE–PAM2 binding inhibitor potency, dose response, biochemical, fluorescence polarization, FITC-PAM2 peptide (AID 602259); assay type: functional; details: read-out: IC50_Mean
[9] = biological target: T4, Polyadenylate-binding protein 1; experiment: PABP1 MLLE–PAM2 interaction inhibitors, dose response, miRNA deadenylation inhibitor project, biochemical, fluorescence polarization, Cy5-PAM2 peptide, secondary (AID 602260); assay type: functional; details: read-out: IC50_Mean
Nonstructural protein 1 = Nonstructural protein 1 (Influenza A virus, UniProt Q194T2); assay type: functional, Influenza A virus (A/California/07/2009(H1N1))
[10] = biological target: T5, RNA-binding protein pos-1 (Caenorhabditis elegans, UniProt G5EF15); experiment: inhibitors of POS-1/mex-3 RNA binding, dose response, biochemical, fluorescence polarization (AID 1964);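 note: purified POS-1 fused to maltose binding protein made in E. coli; potency of compounds blocking POS-1 binding to fluorescent RNA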
T5 sequence (G5EF15 whole entry): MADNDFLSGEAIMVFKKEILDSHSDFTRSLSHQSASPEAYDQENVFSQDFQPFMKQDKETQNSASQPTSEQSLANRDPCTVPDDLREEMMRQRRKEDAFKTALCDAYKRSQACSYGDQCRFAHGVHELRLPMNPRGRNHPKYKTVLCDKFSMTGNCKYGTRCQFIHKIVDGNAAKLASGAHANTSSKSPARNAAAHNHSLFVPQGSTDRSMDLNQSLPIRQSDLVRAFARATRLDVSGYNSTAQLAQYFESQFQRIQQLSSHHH

[11] = biological target: T6, Zinc finger protein mex-5 (Caenorhabditis elegans, UniProt Q9XUB2); experiment: MEX-5/TCR-2 RNA interaction inhibitors, dose response, biochemical, C. elegans, fluorescence polarization (AID 1960)
T6 sequence (Q9XUB2 whole entry): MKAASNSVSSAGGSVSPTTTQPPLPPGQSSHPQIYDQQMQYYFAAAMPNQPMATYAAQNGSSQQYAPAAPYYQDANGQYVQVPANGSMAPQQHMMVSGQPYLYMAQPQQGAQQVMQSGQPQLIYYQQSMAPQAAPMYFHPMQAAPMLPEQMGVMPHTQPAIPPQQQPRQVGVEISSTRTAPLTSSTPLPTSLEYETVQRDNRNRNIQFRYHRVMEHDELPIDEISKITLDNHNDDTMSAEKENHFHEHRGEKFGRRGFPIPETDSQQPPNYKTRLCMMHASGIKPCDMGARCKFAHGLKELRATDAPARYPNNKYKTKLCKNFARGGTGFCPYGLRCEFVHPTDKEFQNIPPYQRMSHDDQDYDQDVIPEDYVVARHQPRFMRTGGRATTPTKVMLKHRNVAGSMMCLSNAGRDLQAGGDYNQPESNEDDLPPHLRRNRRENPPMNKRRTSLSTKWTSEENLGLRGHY

Genome polyprotein = Genome polyprotein (dengue virus type 2, UniProt P29990); experiment: Dengue-2 NS5 methyltransferase inhibitors, primary screen, biochemical, confirmation dose response (AID 588689); assay type: functional

Sequence of Photoreceptor-specific nuclear receptor (Q9Y5X4 whole entry): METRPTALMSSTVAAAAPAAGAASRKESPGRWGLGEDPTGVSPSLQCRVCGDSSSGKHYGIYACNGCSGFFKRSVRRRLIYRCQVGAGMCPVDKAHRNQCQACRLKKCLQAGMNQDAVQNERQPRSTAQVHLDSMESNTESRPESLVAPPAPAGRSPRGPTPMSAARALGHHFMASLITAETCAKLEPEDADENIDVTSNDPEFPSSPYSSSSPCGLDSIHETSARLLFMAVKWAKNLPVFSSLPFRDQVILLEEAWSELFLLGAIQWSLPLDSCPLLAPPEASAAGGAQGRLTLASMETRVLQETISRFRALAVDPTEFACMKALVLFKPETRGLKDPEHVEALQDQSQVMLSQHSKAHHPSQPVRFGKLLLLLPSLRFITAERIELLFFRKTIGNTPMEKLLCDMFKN
T1 sequence (Q00975 whole entry): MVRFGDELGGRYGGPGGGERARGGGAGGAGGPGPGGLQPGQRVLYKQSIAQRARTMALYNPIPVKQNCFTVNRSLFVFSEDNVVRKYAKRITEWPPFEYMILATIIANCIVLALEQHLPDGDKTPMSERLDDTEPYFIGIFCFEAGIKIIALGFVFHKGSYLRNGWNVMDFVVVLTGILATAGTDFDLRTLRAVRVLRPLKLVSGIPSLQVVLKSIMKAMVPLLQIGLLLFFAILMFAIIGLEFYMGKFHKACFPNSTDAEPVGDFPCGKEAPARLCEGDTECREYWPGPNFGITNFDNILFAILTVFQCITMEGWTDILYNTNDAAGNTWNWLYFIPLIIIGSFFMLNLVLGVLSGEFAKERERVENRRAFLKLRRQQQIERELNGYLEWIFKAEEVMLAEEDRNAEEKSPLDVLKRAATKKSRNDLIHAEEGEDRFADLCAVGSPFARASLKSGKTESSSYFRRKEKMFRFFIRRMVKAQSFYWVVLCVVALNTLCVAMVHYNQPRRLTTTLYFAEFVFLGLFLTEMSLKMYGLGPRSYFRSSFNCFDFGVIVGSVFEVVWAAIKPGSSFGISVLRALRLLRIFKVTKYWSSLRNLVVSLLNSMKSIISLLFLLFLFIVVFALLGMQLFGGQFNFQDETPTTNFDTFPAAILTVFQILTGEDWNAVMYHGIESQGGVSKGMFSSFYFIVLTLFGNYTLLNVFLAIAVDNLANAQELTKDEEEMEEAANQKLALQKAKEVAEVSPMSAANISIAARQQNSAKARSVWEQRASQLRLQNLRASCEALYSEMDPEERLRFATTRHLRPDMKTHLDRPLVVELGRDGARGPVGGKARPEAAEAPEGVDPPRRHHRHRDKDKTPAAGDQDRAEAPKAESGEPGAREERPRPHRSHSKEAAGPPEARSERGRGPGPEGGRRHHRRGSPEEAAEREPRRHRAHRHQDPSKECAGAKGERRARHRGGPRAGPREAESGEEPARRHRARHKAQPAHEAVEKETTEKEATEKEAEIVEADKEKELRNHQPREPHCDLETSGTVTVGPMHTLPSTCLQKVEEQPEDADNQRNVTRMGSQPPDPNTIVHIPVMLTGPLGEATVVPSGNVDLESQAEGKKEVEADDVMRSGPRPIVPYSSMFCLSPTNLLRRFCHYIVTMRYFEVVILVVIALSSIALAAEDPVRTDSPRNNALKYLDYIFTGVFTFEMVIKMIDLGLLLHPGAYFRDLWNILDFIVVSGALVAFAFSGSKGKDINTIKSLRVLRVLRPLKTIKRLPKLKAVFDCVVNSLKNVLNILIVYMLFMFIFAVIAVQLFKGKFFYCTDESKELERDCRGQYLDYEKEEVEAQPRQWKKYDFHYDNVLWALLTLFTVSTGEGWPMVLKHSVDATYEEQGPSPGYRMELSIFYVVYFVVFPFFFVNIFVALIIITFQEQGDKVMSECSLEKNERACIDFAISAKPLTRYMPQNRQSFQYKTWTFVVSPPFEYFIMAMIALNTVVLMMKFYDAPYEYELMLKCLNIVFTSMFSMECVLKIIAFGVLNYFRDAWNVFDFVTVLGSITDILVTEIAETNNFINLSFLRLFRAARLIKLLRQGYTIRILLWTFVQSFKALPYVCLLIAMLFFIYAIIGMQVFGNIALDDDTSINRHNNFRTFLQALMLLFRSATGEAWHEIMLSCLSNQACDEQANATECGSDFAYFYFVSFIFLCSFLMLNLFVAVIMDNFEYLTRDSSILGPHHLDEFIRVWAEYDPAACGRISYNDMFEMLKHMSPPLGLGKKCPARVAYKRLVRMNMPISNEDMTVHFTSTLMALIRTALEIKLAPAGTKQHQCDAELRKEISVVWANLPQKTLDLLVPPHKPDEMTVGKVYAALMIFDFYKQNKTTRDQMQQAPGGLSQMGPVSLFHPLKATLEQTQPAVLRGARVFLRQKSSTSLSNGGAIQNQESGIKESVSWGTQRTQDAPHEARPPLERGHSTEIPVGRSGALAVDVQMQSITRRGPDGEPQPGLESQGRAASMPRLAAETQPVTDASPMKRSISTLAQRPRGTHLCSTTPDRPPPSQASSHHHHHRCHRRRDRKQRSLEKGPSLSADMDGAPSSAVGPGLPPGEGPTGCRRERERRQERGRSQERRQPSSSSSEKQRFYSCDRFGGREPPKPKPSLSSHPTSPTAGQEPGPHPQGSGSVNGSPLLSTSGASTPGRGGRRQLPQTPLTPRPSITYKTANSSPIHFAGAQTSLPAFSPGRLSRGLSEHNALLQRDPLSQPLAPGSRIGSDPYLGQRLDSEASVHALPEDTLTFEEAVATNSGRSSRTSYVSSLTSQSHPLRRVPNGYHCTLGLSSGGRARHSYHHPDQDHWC
T1 sequence (Q02410 whole entry): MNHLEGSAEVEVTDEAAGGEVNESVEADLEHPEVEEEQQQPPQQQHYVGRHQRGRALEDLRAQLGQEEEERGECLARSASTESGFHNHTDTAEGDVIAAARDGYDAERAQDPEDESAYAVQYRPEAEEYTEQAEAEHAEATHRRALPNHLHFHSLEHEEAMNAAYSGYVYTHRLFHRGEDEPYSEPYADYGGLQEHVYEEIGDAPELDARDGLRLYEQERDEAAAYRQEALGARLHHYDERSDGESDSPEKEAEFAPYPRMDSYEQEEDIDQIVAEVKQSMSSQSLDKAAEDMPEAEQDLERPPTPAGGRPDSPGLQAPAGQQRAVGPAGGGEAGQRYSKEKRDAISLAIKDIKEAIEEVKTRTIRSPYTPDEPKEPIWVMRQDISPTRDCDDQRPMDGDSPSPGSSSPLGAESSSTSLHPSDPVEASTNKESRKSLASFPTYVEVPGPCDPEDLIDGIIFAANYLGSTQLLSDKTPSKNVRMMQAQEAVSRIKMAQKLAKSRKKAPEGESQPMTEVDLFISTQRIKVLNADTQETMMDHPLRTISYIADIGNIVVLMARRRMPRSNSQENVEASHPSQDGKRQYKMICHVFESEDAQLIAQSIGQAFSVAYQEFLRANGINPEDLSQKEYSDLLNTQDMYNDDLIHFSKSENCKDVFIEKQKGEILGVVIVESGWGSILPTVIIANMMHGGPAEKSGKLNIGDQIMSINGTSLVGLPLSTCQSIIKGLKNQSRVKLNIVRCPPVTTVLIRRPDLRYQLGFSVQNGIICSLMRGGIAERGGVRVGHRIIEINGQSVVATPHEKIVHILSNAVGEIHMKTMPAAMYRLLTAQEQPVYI
T4 sequence (P11940 whole entry): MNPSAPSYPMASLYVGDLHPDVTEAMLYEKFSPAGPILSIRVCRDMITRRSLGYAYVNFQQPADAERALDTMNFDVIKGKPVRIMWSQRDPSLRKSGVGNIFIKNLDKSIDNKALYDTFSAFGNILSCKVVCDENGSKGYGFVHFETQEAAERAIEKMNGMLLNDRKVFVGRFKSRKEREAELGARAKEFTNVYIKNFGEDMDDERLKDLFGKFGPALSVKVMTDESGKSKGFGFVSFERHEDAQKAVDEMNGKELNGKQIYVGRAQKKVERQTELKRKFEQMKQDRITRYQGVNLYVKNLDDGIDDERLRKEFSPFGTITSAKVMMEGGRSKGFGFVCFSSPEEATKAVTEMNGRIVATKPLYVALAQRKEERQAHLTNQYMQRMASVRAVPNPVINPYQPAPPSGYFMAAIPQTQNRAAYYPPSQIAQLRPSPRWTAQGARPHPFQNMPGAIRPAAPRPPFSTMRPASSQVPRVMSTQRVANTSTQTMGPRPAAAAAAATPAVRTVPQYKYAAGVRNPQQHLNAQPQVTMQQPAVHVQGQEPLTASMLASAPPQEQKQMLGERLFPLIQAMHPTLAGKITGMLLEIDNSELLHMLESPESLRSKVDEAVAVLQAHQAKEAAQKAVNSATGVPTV
Sequence of Large T antigen (P03070 whole entry): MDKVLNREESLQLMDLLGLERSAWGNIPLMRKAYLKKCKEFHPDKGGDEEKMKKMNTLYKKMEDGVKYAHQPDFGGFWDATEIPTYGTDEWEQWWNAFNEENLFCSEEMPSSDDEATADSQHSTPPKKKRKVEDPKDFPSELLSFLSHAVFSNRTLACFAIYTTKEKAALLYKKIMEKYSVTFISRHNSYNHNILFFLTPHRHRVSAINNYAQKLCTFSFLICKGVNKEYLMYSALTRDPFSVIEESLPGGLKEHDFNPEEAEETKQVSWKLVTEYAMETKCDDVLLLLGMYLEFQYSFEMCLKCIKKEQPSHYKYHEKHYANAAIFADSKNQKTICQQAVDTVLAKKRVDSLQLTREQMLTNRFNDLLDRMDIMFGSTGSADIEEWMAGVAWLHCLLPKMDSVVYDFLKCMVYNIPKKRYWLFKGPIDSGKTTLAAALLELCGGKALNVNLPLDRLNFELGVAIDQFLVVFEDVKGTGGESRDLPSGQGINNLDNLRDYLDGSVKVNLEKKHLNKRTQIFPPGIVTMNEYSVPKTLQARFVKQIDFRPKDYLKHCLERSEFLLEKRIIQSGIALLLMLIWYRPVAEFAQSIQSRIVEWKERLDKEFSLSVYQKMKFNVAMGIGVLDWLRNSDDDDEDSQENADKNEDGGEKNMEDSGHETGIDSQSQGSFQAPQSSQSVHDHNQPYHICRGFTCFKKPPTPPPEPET

O=C(COc1ccc(Br)cc1)N1CCN(c2ncccn2)CC1
IC50 (Beta-galactosidase): > 80 µM (inactive) | IC50 [1]: 8.99 µM (active) | IC50 [2]: 10.1 µM (not active)

Cc1c(Br)ccc(NC(=O)Cn2nc(-c3cccs3)ccc2=O)c1C
IC50 [1]: 7.73 µM (active) | IC50 [2]: 7.42 µM (active)

O=C(COC(=O)Cn1cnc2ccccc2c1=O)Nc1cc(Cl)ccc1[N+](=O)[O-]
IC50 (Prothrombin): 3.35 µM (active)

COc1ccc(S(=O)(=O)N(C(=O)c2ccco2)c2cc3sc(=O)oc3c3ccccc23)cc1
AC50 (INS1): 4.56 µM (active) | CC50 (Vero): 27.7 µM (active)

COc1ccc(-n2nc3c(N4CCC(C(=O)NCc5ccccc5C)CC4)nnc(C)c3c2C)cc1
IC50 [1]: 1.44 µM (active) | IC50 [2]: 2.01 µM (active)

CC(=O)N(c1ccc2oc(=O)sc2c1)S(=O)(=O)c1cccs1
IC50 (Large T antigen): 40.1 µM (active)

COCCn1c(SCC(=O)Nc2ccc(C(N)=O)cc2)nc2c3ccccc3nc-2c1O
IC50 [3]: 6.77 µM (active) | IC50 [4]: > 50 µM (inactive)

O=C(Cn1ncc2c3ccccc3nc-2c1O)NCC1CCN(Cc2ccccc2F)CC1
EC50 [5]: > 53 µM (inactive) | IC50 [6]: > 47.1 µM (inactive)

Cc1ccc(Nc2c([N+](=O)[O-])ccc3c2=NC2(CCCCC2)N=3)cc1
IC50 [7]: 1.58 µM (not active) | IC50 [8]: > 66 µM (inactive) | IC50 [9]: > 66 µM (inactive) | IC50 (Nonstructural protein 1): 17.4 µM (active)

CCCC(=O)Nc1nnc(Sc2ccc(N(C)C)cc2)s1
EC50 [5]: > 53 µM (inactive) | IC50 [6]: > 47.1 µM (inactive)

COc1cc(NC(=O)CSc2nc(C3CC3)nc3ccccc23)cc(OC)c1
IC50 [1]: 5.56 µM (active) | IC50 [2]: 5.35 µM (active)

O=C1C([N+](=O)[O-])=C(O)c2cccc3cccc1c23
IC50 [3]: > 56.8 µM (not active) | EC50 [10]: 12.6 µM (active) | IC50 [4]: 31.2 µM (active) | EC50 [11]: 9.23 µM (active)

O=C1C(Cl)=CC(=Nc2ccc(O)cc2)C=C1Cl
IC50 [8]: > 66 µM (inactive) | CC50 (Vero): 37.7 µM (active) | IC50 (Genome polyprotein): 7.02 µM (active) | IC50 [9]: > 66 µM (inactive)

C=CCNC(=O)/C(C#N)=C\c1cc(Cl)c(O)c(OCC)c1
IC50 (Prothrombin): > 50 µM (not active)

c1ccc(-c2csc(NNC3=NCCCCC3)n2)cc1
IC50 (Large T antigen): 61.1 µM (active)
